Data from patent US20210290676A1, “IMPROVING THE EFFICACY AND SAFETY OF ADOPTIVE CELLULAR THERAPIES” (University of Southern California, priority 2018, published 2021).

What was measured:
Format in all cases: cell-based, human
[1] = test system: Pgp+ (DiOC2(3)-dye effluxing cells) and CD62L+ T cells; assay: DiOC2(3) dye efflux plus CD62L-APC staining, flow cytometry of inhibitor-treated T cells; settings: treatment for 13 days, IL2 + CD3 and CD28 antibodies
Method: (§1) The use of P-glycoprotein (Pgp)-mediated efflux of DiOC2(3) to isolate stem like T cells for adoptive cellular therapy has been described in application no. […] In the following examples, DiOC2(3) staining was used to study the effect of different inhibitors on generation of stem like T cells.
(§2) DAY 0: Blood was obtained from unidentified donor. After RBC lysis, PBMC were collected using Ficoll-Hypaque separation. […] T cells were cultured in three different conditions: • 1. XVIVO 15 medium (Lonza) with IL2 50 IU/ml, CD3 antibody (30 ng/ml) and CD28 antibody (30 ng/ml). • 2. XVIVO 15 medium (Lonza) with CD3 antibody (30 ng/ml) and CD28 antibody (30 ng/ml). • 3. XVIVO 15 medium (Lonza) with IL2 50 IU/ml DAY 1: Cells were plated in a 6-well plate at a density of 1 million cells in 2 ml/of media (as described above) and treated with different inhibitors
(§3) The cell growth medium was changed in 6-well plates and fresh drugs were added at same concentration for one more week.
(§4) […] (DAY 11): Culture medium was changed and fresh drugs were added in 6-well plates.
(§5) Subsequently, cells were washed with RPMI medium and dye was effluxed at 37° C. for 90 min. Cells were washed with […], stained with CD62L-APC (5 μl/100 μl/sample) at 4° C. for 1 h, washed twice with PBS+1% FBS and analyzed on flow cytometer to check if these drugs treatment leads to increase in Pgp+/CD62L positive population.
(§6) Day 0: Blood was obtained from unidentified donor. After RBC lysis, PBMC were collected using Ficoll-Hypaque separation. 200 million T cells were isolated from PBMCs using CD3 microbeads. T cells were cultured overnight in XVIVO 15 medium (Lonza) with IL2 (50 IU/ml), 30 ng/ml of CD3 and CD28 antibodies
(§7) Day 1: Cells were plated in 24-well plates at a density of 0.3 million cells/ml in each well and treated with different drugs.
(§8) On day 7, culture medium was replaced with fresh medium with fresh drugs.
(§9) On day 13, culture medium was replaced with fresh medium and fresh drugs. Half of the cells were transferred to 6-well plates.
(§10) Day 14: An aliquot of cells with all the treatments listed above (for 13 days) was used to stain the cells with DiOC2(3) (60 ng/ml in RPMI medium) at 4° C. for 40 min, washed with RPMI medium, DiOC2(3) dye was effluxed at 37° C. for 90 min, washed with PBS+1% FBS, stained with CD62L-APC antibody. CD62L is a marker for resting T cells. (5 μl/100 μl/sample) at 4° C. for 1 h, washed twice with PBS+1% FBS and analyzed on flow cytometer to check if these drugs are affecting the dye-effluxing or Pgp+ (i.e., DiOC2(3)-dull) T-cell population.

[2] = test system: CD8+CD45RA+CCR7+CD62L+ T cells; assay: Flow cytometry for CD8, CD45RA, CCR7 and CD62L on inhibitor-treated T cells; settings: cells cultured for 14 days
Method: as §2
(§11) A second aliquot of the cells cultured for 13 days with all the treatments listed above (1-21) was washed with PBS+1% FBS, stained with CD8-PerCP, CD45RA-FITC, CCR7-PE and CD62L-APC (5% Y/100 μl/sample for each of 4 antibodies) at 4° C. for 1 h, washed twice with PBS+100 FBS and analyzed on flow cytometer to check if these drugs are enriching T stem cells showing surface expression of CD8+CD45RA+CCR7+CD62L+.
as §6, §7, §8, §9
as §11, with “14” for “13”, “above” for “above (1-21)”, “(5 ul/100 ul/sample” for “(5% Y/100 μl/sample”, “PBS+1%” for “PBS+100”, “enriching for” for “enriching”, “T” for “T stem”

[3] = test system: Pgp+ (DiOC2(3)-dye effluxing) T cells; assay: DiOC2(3) dye efflux flow cytometry of inhibitor-treated T cells; settings: treatment for 13 days, IL2 + CD3 and CD28 antibodies
Method: as §1, §2, §3, §4, §5, §6, §7, §8, §9, §10

[4] = test system: CD45RA+CCR7+CD62L+ T cells; assay: Flow cytometry for CD45RA, CCR7 and CD62L on inhibitor-treated T cells (all T cells); settings: cells cultured for 14 days
Method: as §2, §11, §6, §7, §8, §9
as §11, with “14” for “13”, “above” for “above (1-21)”, “(5 ul/100 ul/sample” for “(5% Y/100 μl/sample”, “PBS+1%” for “PBS+100”, “enriching for” for “enriching”, “T” for “T stem”

SMILES | p5: double +ve pgp+ and CD62L-APC+ from Live cells ([1]; 1 μM) | p5: double +ve pgp+ and CD62L-APC+ from Live cells ([1]; 2 μM) | GATE P4 CD8(PerCP)+, CD45RA(FITC)+, CCR7 (PE)+, CD62L(APC) ([2]; 1 μM) [%] | GATE P4 CD8(PerCP)+, CD45RA(FITC)+, CCR7 (PE)+, CD62L(APC) ([2]; 2 μM) [%] | p2: pgp+ from Live cells ([3]; 1 μM) | p2: pgp+ from Live cells ([3]; 2 μM) | GATE P6 CD45RA(FITC)+, CCR7 (PE)+, CD62L(APC) ([4]; 1 μM) [%] | GATE P6 CD45RA(FITC)+, CCR7 (PE)+, CD62L(APC) ([4]; 2 μM) [%] | p5: double +ve pgp+ and CD62L-APC+ from Live cells ([1]; 100 nM) | p5: double +ve pgp+ and CD62L-APC+ from Live cells ([1]; 500 nM) | GATE P4 CD8(PerCP)+, CD45RA(FITC)+, CCR7 (PE)+, CD62L(APC) ([2]; 100 nM) [%] | GATE P4 CD8(PerCP)+, CD45RA(FITC)+, CCR7 (PE)+, CD62L(APC) ([2]; 500 nM) [%] | p2: pgp+ from Live cells ([3]; 100 nM) | p2: pgp+ from Live cells ([3]; 500 nM) | GATE P6 CD45RA(FITC)+, CCR7 (PE)+, CD62L(APC) ([4]; 100 nM) [%] | GATE P6 CD45RA(FITC)+, CCR7 (PE)+, CD62L(APC) ([4]; 500 nM) [%]
Cc1cc(C)c(CNC(=O)c2cc(-c3ccc(N4CCN(C)CC4)nc3)cc3c2c(C)cn3C(C)C)c(=O)[nH]1 [GSK503] | 15.79 | 19.99 | 75.24 | 75.8 | 47.87 | 56.13 | 63.54 | 62.62 |  |  |  |  |  |  |  | 
CCCc1cc(C)[nH]c(=O)c1CNC(=O)c1cc(-c2ccc(N3CCN(C(C)C)CC3)nc2)cc2c1cnn2C(C)C [UNC1999] |  |  |  |  |  |  |  |  | 11.06 | 8.9 | 71.75 | 74.57 | 36.8 | 31.14 | 59.08 | 60.97
